Here are results for one compound from EP2114888B1, “TRICYCLIC COMPOUNDS AND THEIR USE AS GLUCOCORTICOID RECEPTOR MODULATORS” (priority 2007, dated 2008).

Usually inhibition stands for the change of the read-out against control, counted positive when it falls. As a reminder, the Papp A→B is the apparent permeability from the apical to the basolateral side of a cell layer. A lower Papp A→B goes with slow passage. A word on the AUC: it is the area under the concentration-time curve, a measure of exposure. A lower AUC goes with less exposure. By Tmax is commonly meant the time at which the peak concentration occurs.

Structures are written as SMILES.

For data set [1], the system named is IFNγ. Kind of data set: Ex vivo LPS-stimulated human whole blood, IFNγ production. It counts as cell-based. As to conditions: mean values. As for the experimental part: (§1) Venous blood from human donors was collected as 10 ml aliquots in tubes containing sodium heparin (BD Vacutainer from Becton Dickinson and Company, Franklin Lakes, NY). Blood was added to sterile polystyrene round bottom 96-well tissue culture plates (Corning Costar) at 100 µl/well, omitting the outside wells. Media (RPMI Medium 1640 with L-glutamine, Invitrogen Corporation, Carlsbad, CA) was added to the blood in 90 µl aliquots for a total volume of 190 µl. Outside wells were filled with 200 µl of media. Blood was placed in a humidified 37°C incubator with 5% CO2 while compounds were prepared (nearly 60 minutes).
(§2) Compounds were prepared from 10 mM stock solutions in dimethylsulfoxide (DMSO, Sigma-Aldrich). […] Final DMSO and ethanol concentrations in the assay were 0.1 % and 1.5%. The samples were gently triturated twice to mix and replaced in the incubator. LPS stock (E. coli serotype 0111:B4, Sigma-Aldrich), stored in aliquots of 100 µg/ml in RPMI at -20°C, was diluted 1/50 in RPMI to make a working stock solution. After 60 minutes of incubation, 10 µl of the prepared LPS working stock was added to the blood to a final concentration of 100 ng/ml, omitting wells to be used as negative control. The samples were again gently triturated and the plates incubated overnight for 22 hours. Following incubation, the blood was centrifuged at 1500 x g for 5 minutes and the plasma removed to either freeze at -20°C or assay for cytokine release.
(§3) IL-1β, IFNγ,IL-6, and TNFα protein levels were measured using Meso Scale assay kits (Meso Scale Discovery, Gaithersburg, MD). Reagents were allowed to come to room temperature. Meso Scale plates were blocked with 30 µl of human plasma/serum assay diluent with gentle shaking for 60 minutes at room temperature. Plates were washed 3x with wash buffer (PBS, Invitrogen Corporation, with 0.05% Tween-20, Sigma-Aldrich). Calibrators for standard curves were prepared in human plasma/serum assay diluent as a 1/5 serial dilution to achieve final concentrations ranging from 50000 pg/ml to 3.2 pg/ml. Samples and calibrators were added at 20 µl/well, then incubated at room temperature with gentle shaking for 90 minutes. Plates were again washed 3 times with wash buffer. Detection antibody was diluted in human plasma/serum antibody diluent to 1 µg/ml and added to the plate at 20 µl/well. Plates were incubated as before for 60 minutes and washed again. Read Buffer T (4x) was diluted 1:1 with mqH2O to 2 times concentration and 150 µl added to each well. Plates were analyzed on the SECTOR Imager 6000 (Meso Scale Discovery) to generate raw signal values.
(§4) Individual values were compared to positive and negative controls (vehicle treated blood with LPS and vehicle treated blood without LPS, respectively) to generate % inhibition. Triplicate values were averaged for each donor. The values for two donors were averaged (only one donor was used for IL-1β) and graphed using 4-parameter fit curves in the GraFit 5.0.11 application.

Data set [2] has as its system TNFα. Kind of data set: Ex vivo LPS-stimulated human whole blood, TNFα production. Format: cell-based. As to conditions: mean values. Here is the method: as §1, §2, §3, §4
Data set [3] in a line: Caco-2 cell monolayer A→B permeability assay. The note with it: human. In general terms: Caco-2 monolayers are a common model of the intestinal barrier.
Description: The Caco-2 cell monolayer is an in vitro tissue culture model of the intestinal epithelium. These cells are of human colonic origin and become polarized, fully differentiated enterocytes in 2-3 weeks. Once differentiated, these cells have tight junctions and express various biochemical processes such as active efflux transporters including P-glycoprotein (P-gp). With this model, it is possible to determine the apparent permeability (Papp) of a compound across the polarized Caco-2 cell monolayer.
An A→B Assay is performed with Caco-2 cell monolayers to determine compound Papp from A chamber to B chamber. This Papp is representative of luminal (gut) to serosal (blood) compound transport across intestinal epithelium that may be seen during intestinal absorption.
Data set [4] can be described thus: in vivo. The note with it: rat, po.
Data set [5] is described as follows: Oral absorption profile, time to Cmax in dogs. The note with it: dog, in vivo.
Data set [6] deals with IL-6. Kind of data set: IL-1β-stimulated IL-6 production in A549 lung epithelial cells. It counts as cell-based, Human. As to conditions: Homo sapiens, A549. As for the experimental part:
Human A549 lung epithelial cells (American Type Culture Collection, Rockville, MD) were cultured in Kaighn's F-12K medium with penicillin-streptomycin (10 U/mL) and 10% heat-inactivated fetal bovine serum (all from Invitrogen, Grand Island, NY). A549 cells were plated at a density of 30,000 cells/well in 96-well plates and incubated overnight at 37°C and with 5% CO2. The cells were serum-starved by replacing the growth medium with serum-free Kaighn's F-12K medium with penicillin-streptomycin (10 U/mL) and, again, incubating overnight at 37°C and with 5% CO2. On the third day, the medium was replaced with fresh serum-free medium and the cells were incubated with or without compound (vehicle was DMSO at 0.1 % maximum concentration) for approximately 1 hour and then stimulated with 1 ng/mL recombinant human IL-1β (R&D Systems, Minneapolis, MN) for 20 hours at 37°C and with 5% CO2. Cell supernatants were collected for determination of IL-6 levels using MSD (Meso Scale Discovery, Gaithersburg, MD) 96-well Single Spot plates as per the manufacturer's instructions. Plates were read with an MSD Sector Imager 6000. […] Percent inhibition for each compound concentration, relative to these controls, was calculated using Excel (Microsoft, Redmond, WA). IC50 values were generated using GraFit 5.0 data analysis software (Erithacus Software Ltd., Surrey, UK).

In data set [7] the test system is Mouse Collagen-induced arthritis (mCIA). Kind of data set: Traditional mouse collagen-induced arthritis (mCIA) model. Format: in vivo, male DBA/J mice. As to conditions: mice. As for the experimental part:
Mouse Collagen-induced arthritis is a commonly used chronic, preclinical model of rheumatoid arthritis in which joint swelling and bone destruction occur following immunization with type II collagen. Reduction of disease incidence and severity has been shown previously to be predictive of disease-modification and signs and symptoms mitigation, respectively, in a clinical setting.
In the traditional mCIA model, male DBA/J mice were immunized with 50 µg chick type II collagen (cCII) in complete Freund's adjuvant and then boosted 21 days later with 50 µg cCII in incomplete Freund's adjuvant. Treatment with compounds was initiated on the morning of the boost and continued for 56 days. The effectiveness of treatment was measured by disease incidence (i.e., number of mice showing any sign of disease) and disease severity, both of which were measured twice a week.

Take `Cc1ncccc1NC(=O)c1ccc2c(c1)CC[C@@H]1C[C@@](O)(C(F)(F)F)CC[C@@]21Cc1ccccc1` [Example 1, (4βS,7R,8αR)-4β-benzyl-7-hydroxy-N-(2-methylpyridin-3-yl)-7-(trifluoromethyl)-4β,5,6,7,8,8α,9,10-octahydrophenanthrene-2-carboxamide]: the inhibition at 0.000457247 µM was 16.9% in data set [1] (0.457247 nM) and 8.96% in data set [2] (0.457247 nM). In addition, the inhibition at 0.00137174 µM was found to be 19.8% in data set [1] (1.371742 nM) and 7.87% in data set [2] (1.371742 nM). Further, the inhibition at 0.00411523 µM in data set [1] (4.115226 nM) is -3.18%; in data set [2] (4.115226 nM), -1.31%. Besides, the inhibition at 0.0123457 µM in data set [1] (12.34568 nM) stood at 26.7%; in data set [2] (12.34568 nM) it was 9.42%. Moreover, the inhibition at 0.037037 µM in data set [1] (37.03704 nM) came out at 51%; in data set [2] (37.03704 nM) it was 18.7%. The inhibition at 0.111111 µM turned out to be 60.6% in data set [1] (111.1111 nM) and 27.4% in data set [2] (111.1111 nM). Also, the inhibition at 0.333333 µM in data set [1] (333.3333 nM) came to 73.5%; in data set [2] (333.3333 nM), 36%. Further, the figures for the inhibition at 1 µM in data set [1] (1000 nM) and in data set [2] (1000 nM) were 78.7% and 38.1%, respectively. Further, in data set [3], the Papp A→B was 37.5 ×10⁻⁶ cm/s. Further, in data set [4], the AUC is 460 ng·h/mL. In data set [5], the time to peak (Tmax) is 1.5 h. For the same compound, in data set [6], the inhibition came to 86.1%. Besides, in data set [7], the “Disease incidence (traditional mCIA) EAUC50 (AUC 0-4 hr)” value stood at 0.04 µg·h/mL. Also, in data set [7], the “Disease incidence (traditional mCIA) EAUC80 (AUC 0-4 hr)” value was determined as 0.10 µg·h/mL.
